Data from patent US20220031800A1, “PEPTIDES FOR TREATING NON-EXUDATIVE MACULAR DEGENERATION AND OTHER DISORDERS OF THE EYE” (Allegro Pharmaceuticals, LLC, priority 2019, published 2022).
Square brackets hold non-standard residues; d marks the D form. Peptide text beside a SMILES is read from it. Cya = N[C@@H](CS(=O)(=O)O)C(=O)O

System: study eye of subjects with intermediate non-exudative AMD
Assay: Best corrected visual acuity (BCVA, letters read) in Dry AMD study
Format: in vivo, human
Conditions: for Proportion of subjects with gain of at least 8 BCVA letters read: post hoc
Procedure: The subjects in Groups 1 and 2 received the following treatments: Thus, subjects in Group 1 received an initial sham injection in the study eye followed by a single 1 mg dose of risuteganib in the study eye. The subjects in Group 2 received a total of two (2) doses of risuteganib (1 mg per dose) in the study eye. Numerous study assessments were conducted at various time points throughout the study. Included among these study assessments were; refractive eye examinations, determinations of BCVA AND low-luminance BCVA, Lanthony D-15 color vision test, measurement of intraocular pressure (IOP), Indirect ophthalmoscopy/dilated fundus examinations and spectral-domain optical coherence tomography (SD-OCT). Also, blood and saliva samples were obtained from each subject for genetic analysis. The above-listed study assessments were performed at the time points indicated in Table 1, below: For this study, a primary efficacy endpoint was deemed to be the percentage of population with an improvement in BCVA of at least 8 letters (1.5 lines) BCVA.

[1] = Week 4, Group 2 (1 mg IVT day 1 + wk 16), subset gain ≥8 letters at any week, n = 14
[2] = Week 4, Group 2 (1 mg IVT day 1 + wk 16), subset gain ≥8 letters at primary endpoint week, n = 12
[3] = Week 8, Group 2 (1 mg IVT day 1 + wk 16), subset gain ≥8 letters at any week, n = 14
[4] = Week 8, Group 2 (1 mg IVT day 1 + wk 16), subset gain ≥8 letters at primary endpoint week, n = 12
[5] = Week 12, Group 2 (1 mg IVT day 1 + wk 16), subset gain ≥8 letters at any week, n = 14
[6] = Week 12, Group 2 (1 mg IVT day 1 + wk 16), subset gain ≥8 letters at primary endpoint week, n = 12
[7] = Week 16, Group 2 (1 mg IVT day 1 + wk 16), subset gain ≥8 letters at any week, n = 14
[8] = Week 16, Group 2 (1 mg IVT day 1 + wk 16), subset gain ≥8 letters at primary endpoint week, n = 12
[9] = Week 20, Group 1 crossover (sham day 1, 1 mg IVT wk 16), subset gain ≥8 letters at any week, n = 3
[10] = Week 20, Group 1 crossover (sham day 1, 1 mg IVT wk 16), subset gain ≥8 letters at primary endpoint week, n = 2
[11] = Week 20, Group 2 (1 mg IVT day 1 + wk 16), subset gain ≥8 letters at any week, n = 14
[12] = Week 20, Group 2 (1 mg IVT day 1 + wk 16), subset gain ≥8 letters at primary endpoint week, n = 12
[13] = Week 24, Group 1 crossover (sham day 1, 1 mg IVT wk 16), subset gain ≥8 letters at any week, n = 3
[14] = Week 24, Group 1 crossover (sham day 1, 1 mg IVT wk 16), subset gain ≥8 letters at primary endpoint week, n = 2

## C[C@@H](O)[C@H](NC(=O)[C@H](CS(=O)(=O)O)NC(=O)CNC(=O)[C@H](CCCNC(=N)N)NC(=O)CN)C(=O)N1CCC[C@H]1C(=O)O [risuteganib, Glycyl-L-arginylglycyl-3-sulfo-L-alanyl-L-threonyl-L-proline] (H-GRG[Cya]TP-OH)
BCVA, after each 1 mg intravitreal dose
  Time of peak effect after treatment: 12 weeks
Group 2, GA Subgroup (GA in central 6-mm subfield)
  Proportion of subjects with gain of at least 8 BCVA letters read: 40%
Group 2, No GA Subgroup (no GA in central 6-mm subfield)
  Proportion of subjects with gain of at least 8 BCVA letters read: 80%
[1]
  BCVA change in letters read, mean: 4.0 letters read
  BCVA change in letters read, median: 3.0 letters read
  BCVA letters read, mean: 66.5 letters read
  BCVA letters read, median: 67.0 letters read
[2]
  BCVA change in letters read, mean: 4.1 letters read
  BCVA change in letters read, median: 3.0 letters read
  BCVA letters read, mean: 67.0 letters read
  BCVA letters read, median: 68.5 letters read
[3]
  BCVA change in letters read, mean: 5.8 letters read
  BCVA change in letters read, median: 5.5 letters read
  BCVA letters read, mean: 68.3 letters read
  BCVA letters read, median: 71.0 letters read
[4]
  BCVA change in letters read, mean: 5.6 letters read
  BCVA change in letters read, median: 5.5 letters read
  BCVA letters read, mean: 68.5 letters read
  BCVA letters read, median: 72.0 letters read
[5]
  BCVA change in letters read, mean: 7.1 letters read
  BCVA change in letters read, median: 5.5 letters read
  BCVA letters read, mean: 69.6 letters read
  BCVA letters read, median: 69.5 letters read
[6]
  BCVA change in letters read, mean: 7.7 letters read
  BCVA change in letters read, median: 5.5 letters read
  BCVA letters read, mean: 70.6 letters read
  BCVA letters read, median: 72.0 letters read
[7]
  BCVA change in letters read, mean: 6.4 letters read
  BCVA change in letters read, median: 8.0 letters read
  BCVA letters read, mean: 68.9 letters read
  BCVA letters read, median: 69.5 letters read
[8]
  BCVA change in letters read, mean: 6.3 letters read
  BCVA change in letters read, median: 8.0 letters read
  BCVA letters read, mean: 69.2 letters read
  BCVA letters read, median: 70.5 letters read
[9]
  BCVA change in letters read, mean: 2.0 letters read
  BCVA change in letters read, median: 0.0 letters read
  BCVA letters read, mean: 71.7 letters read
  BCVA letters read, median: 75.0 letters read
[10]
  BCVA change in letters read, mean: 0.0 letters read
  BCVA change in letters read, median: 0.0 letters read
  BCVA letters read, mean: 70.0 letters read
  BCVA letters read, median: 70.0 letters read
[11]
  BCVA change in letters read, mean: 9.8 letters read
  BCVA change in letters read, median: 10.0 letters read
  BCVA letters read, mean: 72.3 letters read
  BCVA letters read, median: 74.5 letters read
[12]
  BCVA change in letters read, mean: 11.3 letters read
  BCVA change in letters read, median: 10.0 letters read
  BCVA letters read, mean: 74.2 letters read
  BCVA letters read, median: 75.0 letters read
[13]
  BCVA change in letters read, mean: 8.7 letters read
  BCVA change in letters read, median: 10.0 letters read
  BCVA letters read, mean: 78.3 letters read
  BCVA letters read, median: 79.0 letters read
[14]
  BCVA change in letters read, mean: 8.0 letters read
  BCVA change in letters read, median: 8.0 letters read
  BCVA letters read, mean: 78.0 letters read
  BCVA letters read, median: 78.0 letters read
